The values below come from patent publication US20260217711A1, “TRIAZOLOPYRIDINYL ETHER LINKED COMPOUNDS AS KINASE INHIBITORS” (Bristol-Myers Squibb Company, priority 2023, published 2026).

Data set [1] addresses T1, MDR1 P-glycoprotein (P-gp) (Homo sapiens, UniProt P08183).
T1 construct: host or cells: MDCK (MDCK-MDR1)
The experiment in a line: Transporter assay, bi-directional transport, MDCK-MDR1 cells. Format: in vitro ADME. As to conditions: basolateral to apical / apical to basolateral, >2 = substrate; for efflux ratio at 2 h, 0.1 uM: human, MDCK-MDR1, 0.1 uM, read-out: PGP (efflux ratio); for PGP (efflux ratio): 0.1 uM, 2 hours. On the procedure:
(§1) Compounds were assessed as substrates of MDR1 P-glycoprotein (P-gp) and mouse Breast Cancer Resistance Protein (mBcrp) at 0.1 uM, for 2 hours, in bi-directional transport assays using recombinant MDCK cell lines as described previously (Feng et al. Drug Metabolism and Disposition 2008, Vol. 36:268-275). MDCK-MDR1 and MDCK-mBcrp cells were acquired from the National Institutes of Health (Bethesda, MID) and the Netherlands Cancer Institute respectively, and used under license agreement. Data are expressed as efflux ratios, where transport across the cell monolayer in the basolateral to apical direction is divided by transport in the apical to basolateral direction. Efflux ratios >2 indicate the test compound is a substrate of the transporter tested.

Data set [2] deals with T2, mouse Breast Cancer Resistance Protein (mBcrp) (Mus musculus, UniProt Q7TMS5).
T2 construct: host or cells: MDCK (MDCK-mBcrp)
T2 sequence (Q7TMS5 1-657): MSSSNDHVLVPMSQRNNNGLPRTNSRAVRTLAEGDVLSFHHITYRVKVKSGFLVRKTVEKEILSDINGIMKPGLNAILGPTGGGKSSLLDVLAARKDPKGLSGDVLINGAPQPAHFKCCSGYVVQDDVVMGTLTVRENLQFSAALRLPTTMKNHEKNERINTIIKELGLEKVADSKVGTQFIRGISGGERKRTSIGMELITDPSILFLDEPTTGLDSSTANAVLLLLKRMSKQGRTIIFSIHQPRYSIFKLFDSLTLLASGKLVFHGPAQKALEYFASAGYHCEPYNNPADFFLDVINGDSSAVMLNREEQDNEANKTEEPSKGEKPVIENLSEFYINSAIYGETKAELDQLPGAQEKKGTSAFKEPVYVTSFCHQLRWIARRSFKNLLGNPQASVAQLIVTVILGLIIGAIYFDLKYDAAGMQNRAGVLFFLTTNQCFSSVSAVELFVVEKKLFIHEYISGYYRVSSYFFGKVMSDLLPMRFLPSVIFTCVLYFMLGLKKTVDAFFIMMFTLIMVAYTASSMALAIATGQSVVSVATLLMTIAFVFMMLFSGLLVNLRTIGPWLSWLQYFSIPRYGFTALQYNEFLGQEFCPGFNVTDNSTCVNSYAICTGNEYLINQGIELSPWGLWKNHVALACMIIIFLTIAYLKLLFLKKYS
In words: Transporter assay, bi-directional transport, MDCK-mBcrp cells. Format: in vitro ADME. As to conditions: basolateral to apical / apical to basolateral, >2 = substrate; for efflux ratio at 2 h, 0.1 uM: mouse, read-out: BCRP (efflux ratio); for BCRP (efflux ratio): 0.1 uM, 2 hours. On the procedure: as §1

Data set [3] concerns MLKL phosphorylation (pMLKL) in HT29-L23 cells. The experiment in a line: MLKL Phosphorylation High-Content Assay. The format is cell-based. As to conditions: necroptosis induced with human TNFα, SMAC mimetic and Z-VAD, 6 h, read-out: LE pMLKL HC IC50. The procedure, abridged:
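HT29-L23 cells incubated 6 h at 37° C before detection of phospho-MLKL by immunostaining with anti-phospho-MLKL antibody (1:1000 in PBS/0.1% BSA, overnight at 4° C). Readout by high-content imaging with compartmental image analysis.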

Where two headings read alike, the source gives them in different places.

T1 sequence (P08183 whole entry): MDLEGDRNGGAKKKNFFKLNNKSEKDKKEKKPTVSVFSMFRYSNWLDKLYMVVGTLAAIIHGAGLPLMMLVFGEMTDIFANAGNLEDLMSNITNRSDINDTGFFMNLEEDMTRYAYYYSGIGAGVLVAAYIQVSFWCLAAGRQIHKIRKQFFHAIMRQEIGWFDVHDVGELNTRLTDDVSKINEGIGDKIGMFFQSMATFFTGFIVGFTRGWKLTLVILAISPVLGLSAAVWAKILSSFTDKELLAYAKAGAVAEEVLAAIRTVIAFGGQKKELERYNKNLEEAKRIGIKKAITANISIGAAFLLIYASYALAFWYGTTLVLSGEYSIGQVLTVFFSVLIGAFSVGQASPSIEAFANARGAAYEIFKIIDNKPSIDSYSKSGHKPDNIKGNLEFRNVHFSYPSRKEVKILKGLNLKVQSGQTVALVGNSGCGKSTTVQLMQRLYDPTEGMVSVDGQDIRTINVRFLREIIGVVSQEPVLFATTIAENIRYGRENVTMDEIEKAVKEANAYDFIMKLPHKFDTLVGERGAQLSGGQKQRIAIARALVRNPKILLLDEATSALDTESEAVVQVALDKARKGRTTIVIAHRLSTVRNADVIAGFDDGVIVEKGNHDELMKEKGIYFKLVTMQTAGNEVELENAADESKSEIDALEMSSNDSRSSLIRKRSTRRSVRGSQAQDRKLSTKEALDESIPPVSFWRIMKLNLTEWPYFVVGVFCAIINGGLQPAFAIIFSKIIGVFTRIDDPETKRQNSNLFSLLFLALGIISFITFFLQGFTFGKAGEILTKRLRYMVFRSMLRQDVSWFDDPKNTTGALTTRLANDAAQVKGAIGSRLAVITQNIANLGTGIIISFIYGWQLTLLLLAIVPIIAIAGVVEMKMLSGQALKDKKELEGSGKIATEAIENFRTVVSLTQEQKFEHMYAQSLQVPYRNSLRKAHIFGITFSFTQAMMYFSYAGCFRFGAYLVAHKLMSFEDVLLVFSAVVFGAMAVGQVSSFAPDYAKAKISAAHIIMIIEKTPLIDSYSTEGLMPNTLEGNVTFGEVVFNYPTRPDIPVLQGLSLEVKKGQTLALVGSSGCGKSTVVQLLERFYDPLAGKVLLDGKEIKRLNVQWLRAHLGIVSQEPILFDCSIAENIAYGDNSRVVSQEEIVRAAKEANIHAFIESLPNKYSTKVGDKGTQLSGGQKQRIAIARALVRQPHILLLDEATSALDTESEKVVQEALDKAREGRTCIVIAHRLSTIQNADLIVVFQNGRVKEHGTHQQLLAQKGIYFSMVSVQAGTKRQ

For `CC(O)(c1ccc(F)cc1)C(F)(F)CCOc1cccc(-c2ccn3nc(N)nc3c2)c1F` (single isomer, unassigned) [Example 2, 5-(3-(2-amino-[1,2,4]triazolo[1,5-a]pyridin-7-yl)-2-fluorophenoxy)-3,3-difluoro-2-(4-fluorophenyl)pentan-2-ol], the efflux ratio at 2 h, 0.1 uM in data set [1] came out at 1.8; in data set [2] it was 6.2. In data set [3], the IC50 (in general, the point on the concentration scale where inhibition reaches its midpoint) is 4 nM.

On to `CC(O)(c1ccc(F)cc1)C(F)(F)CCOc1cccc(-c2ccn3nc(N)nc3c2)c1F` (single isomer, unassigned) [Example 3, 5-(3-(2-amino-[1,2,4]triazolo[1,5-a]pyridin-7-yl)-2-fluorophenoxy)-3,3-difluoro-2-(4-fluorophenyl)pentan-2-ol], for which the “PGP (efflux ratio)” value in data set [1] was 1.2. In addition, the “BCRP (efflux ratio)” value in data set [2] stood at 3.4. In data set [3], the IC50 stood at 0.1 nM.

In the case of `CC(O)(c1ccc(F)cc1)C(F)(F)CCOc1c(Cl)ccc(-c2ccn3nc(N)nc3c2)c1F` (single isomer, unassigned) [Example 4, 5-(3-(2-amino-[1,2,4]triazolo[1,5-a]pyridin-7-yl)-6-chloro-2-fluorophenoxy)-3,3-difluoro-2-(4-fluorophenyl)pentan-2-ol], the “PGP (efflux ratio)” value in data set [1] was found to be 1.5. Further, in data set [2], the “BCRP (efflux ratio)” value was found to be 1.7. For the same compound, in data set [3], the IC50 was 0.5 nM.

On to `[2H]C([2H])(CC(F)(F)C(C)(O)c1ccc(F)cc1)Oc1cccc(-c2ccn3nc(N)nc3c2)c1F` (single isomer, unassigned) [Example 13, 5-(3-(2-amino-[1,2,4]triazolo[1,5-a]pyridin-7-yl)-2-fluorophenoxy)-3,3-difluoro-2-(4-fluorophenyl)pentan-5,5-d2-2-ol], for which the efflux ratio at 2 h, 0.1 uM came out at 1.8 in data set [1] and 3.9 in data set [2]. Also, the IC50 in data set [3] turned out to be 0.1 nM.

Take `[2H]C([2H])(CC(F)(F)C(C)(O)c1ccc(F)cc1)Oc1c(F)ccc(-c2ccn3nc(N)nc3c2)c1F` (single isomer, unassigned) [Example 15, 5-(3-(2-amino-[1,2,4]triazolo[1,5-a]pyridin-7-yl)-2,6-difluorophenoxy)-3,3-difluoro-2-(4-fluorophenyl)pentan-5,5-d2-2-ol]: the figures for the efflux ratio at 2 h, 0.1 uM in data set [1] and in data set [2] were 1.4 and 2.9, respectively. In addition, the IC50 in data set [3] was found to be 0.3 nM.

Consider `CC(O)(c1ccc(F)cn1)C(F)(F)CCOc1c(Cl)ccc(-c2ccn3nc(N)nc3c2)c1F` (single isomer, unassigned) [Example 31, 5-(3-(2-amino-[1,2,4]triazolo[1,5-a]pyridin-7-yl)-6-chloro-2-fluorophenoxy)-3,3-difluoro-2-(5-fluoropyridin-2-yl)pentan-2-ol], for which the efflux ratio at 2 h, 0.1 uM in data set [1] was found to be 5.3; in data set [2] it was 1.4. Besides, the IC50 in data set [3] is 2 nM.

Take `Nc1nc2cc(-c3ccc(F)c(OCCC(F)(F)C(O)c4ccc(F)cn4)c3F)ccn2n1` (single isomer, unassigned) [Example 34, 4-(3-(2-amino-[1,2,4]triazolo[1,5-a]pyridin-7-yl)-2,6-difluorophenoxy)-2,2-difluoro-1-(5-fluoropyridin-2-yl)butan-1-ol]: the efflux ratio at 2 h, 0.1 uM in data set [1] turned out to be 2.4; in data set [2], 7. Also, in data set [3] (Homo sapiens), the IC50 worked out at 8 nM.

As to `CC(O)(c1cccc(F)c1)C(F)(F)CCOc1c(F)ccc(-c2ccn3nc(N)nc3c2)c1F` (single isomer, unassigned) [Example 123, 5-(3-(2-amino-[1,2,4]triazolo[1,5-a]pyridin-7-yl)-2,6-difluorophenoxy)-3,3-difluoro-2-(3-fluorophenyl)pentan-2-ol], the IC50 in data set [3] came to 0.9 nM.

On to `CC(O)(c1ccccc1F)C(F)(F)CCOc1c(F)ccc(-c2ccn3nc(N)nc3c2)c1F` (single isomer, unassigned) [Example 124, 5-(3-(2-amino-[1,2,4]triazolo[1,5-a]pyridin-7-yl)-2,6-difluorophenoxy)-3,3-difluoro-2-(2-fluorophenyl)pentan-2-ol], for which the IC50 in data set [3] was 160 nM.

Consider `CC(O)(c1ccccc1F)C(F)(F)CCOc1c(F)ccc(-c2ccn3nc(N)nc3c2)c1F` (single isomer, unassigned) [Example 125, 5-(3-(2-amino-[1,2,4]triazolo[1,5-a]pyridin-7-yl)-2,6-difluorophenoxy)-3,3-difluoro-2-(2-fluorophenyl)pentan-2-ol], for which, in data set [3], the IC50 was found to be 0.6 nM.

`CC(CC(F)(F)C(C)(O)c1ccc(F)cc1)Oc1c(F)ccc(-c2ccn3nc(N)nc3c2)c1F` (single isomer, unassigned) [Example 126, 5-(3-(2-amino-[1,2,4]triazolo[1,5-a]pyridin-7-yl)-2,6-difluorophenoxy)-3,3-difluoro-2-(4-fluorophenyl)hexan-2-ol]: in data set [3], the IC50 turned out to be 370 nM.

Consider `CC(CC(F)(F)C(C)(O)c1ccc(F)cc1)Oc1c(F)ccc(-c2ccn3nc(N)nc3c2)c1F` (single isomer, unassigned) [Example 127, 5-(3-(2-amino-[1,2,4]triazolo[1,5-a]pyridin-7-yl)-2,6-difluorophenoxy)-3,3-difluoro-2-(4-fluorophenyl)hexan-2-ol], for which the half-maximal inhibitory concentration (IC50) in data set [3] was 1.1 nM.

On to `CC(CC(F)(F)C(C)(O)c1ccc(F)cc1)Oc1c(F)ccc(-c2ccn3nc(N)nc3c2)c1F` (single isomer, unassigned) [Example 128, 5-(3-(2-amino-[1,2,4]triazolo[1,5-a]pyridin-7-yl)-2,6-difluorophenoxy)-3,3-difluoro-2-(4-fluorophenyl)hexan-2-ol], for which the IC50 in data set [3] turned out to be 170 nM.

For the compound `CC(CC(F)(F)C(C)(O)c1ccc(F)cc1)Oc1c(F)ccc(-c2ccn3nc(N)nc3c2)c1F` (single isomer, unassigned) [Example 129, 5-(3-(2-amino-[1,2,4]triazolo[1,5-a]pyridin-7-yl)-2,6-difluorophenoxy)-3,3-difluoro-2-(4-fluorophenyl)hexan-2-ol], the IC50 in data set [3] came out at 70 nM.

As to `CC(C)(CC(F)(F)C(C)(O)c1ccc(F)cc1)Oc1c(F)ccc(-c2ccn3nc(N)nc3c2)c1F` (single isomer, unassigned) [Example 130, 5-(3-(2-amino-[1,2,4]triazolo[1,5-a]pyridin-7-yl)-2,6-difluorophenoxy)-3,3-difluoro-2-(4-fluorophenyl)-5-methylhexan-2-ol], the IC50 in data set [3] is 4200 nM.

Regarding `CC(C)(CC(F)(F)C(C)(O)c1ccc(F)cc1)Oc1c(F)ccc(-c2ccn3nc(N)nc3c2)c1F` (single isomer, unassigned) [Example 131, 5-(3-(2-amino-[1,2,4]triazolo[1,5-a]pyridin-7-yl)-2,6-difluorophenoxy)-3,3-difluoro-2-(4-fluorophenyl)-5-methylhexan-2-ol], in data set [3], the IC50 was found to be 3.4 nM.

On to `Nc1nc2cc(-c3cccc(OCCC(F)(F)COc4cc(Cl)ccn4)c3F)ccn2n1` [Example 1, 7-(3-(4-((4-chloropyridin-2-yl)oxy)-3,3-difluorobutoxy)-2-fluorophenyl)-[1,2,4]triazolo[1,5-a]pyridin-2-amine], for which the IC50 in data set [3] (Homo sapiens) was found to be 140 nM.

Take `Cc1ccc(-c2ccn3nc(N)nc3c2)c(F)c1C(=O)NCC(F)(F)C(O)c1ccc(F)cc1` (centres unmarked) [Example 30 from WO2022/086828, reference compound]: the results for the efflux ratio at 2 h, 0.1 uM in data set [1] and in data set [2] were 35 and 43, respectively.

On to `Nc1nc2cc(-c3cccc(OCCC(F)(F)Oc4ccc(F)cc4)c3F)ccn2n1` [Example 65, 7-(3-(3,3-difluoro-3-(4-fluorophenoxy)propoxy)-2-fluorophenyl)-[1,2,4]triazolo[1,5-a]pyridin-2-amine], for which, in data set [3] (Homo sapiens), the half-inhibitory concentration (IC50) came out at 140 nM.

`Nc1nc2cc(-c3cccc(OCCC(F)(F)Cc4ccccc4)c3F)ccn2n1` [Example 74, 7-(3-(3,3-difluoro-4-phenylbutoxy)-2-fluorophenyl)-[1,2,4]triazolo[1,5-a]pyridin-2-amine]: the IC50 in data set [3] (Homo sapiens) amounted to 5 nM.
